Publication PMC8153946, “Substrate Selectivity of Coumarin Derivatives by Human CYP1 Enzymes: In Vitro Enzyme Kinetics and In Silico Modeling” (ACS Omega, 2021)

Experiments:
Assay type in all cases: biochemical
[1] = system: human CYP1 enzymes (CYP1A1, CYP1A2, CYP1B1); test: Oxidation efficiency compared across all CYP1 forms (Table 1); conditions: based on Table 1
Protocol: (§1) Baculovirus-insect cell-expressed human CYP1A1, CYP1A2, CYP1B1, CYP2A6, CYP2B6, CYP2C8, CYP2C9, CYP2C19, CYP2D6, CYP2E1, CYP3A4, CYP3A5, and CYP3A7 were purchased from BD Biosciences Discovery Labware (Woburn, MA, USA) and used according to the manufacturer’s instructions.
(§2) The kinetic assays were carried out in 100 μL volume containing 100 mM Tris-HCl buffer pH 7.4, 0–40 μM coumarin derivative or 0–10 μM 7-ethoxyresorufin, 1–25 nM recombinant CYP or 0–0.1 g/L microsomal protein, and 20% NADPH regenerating system. Incubations took place at 37 °C in 96-multiwell plates; the fluorescence was measured with a Victor[2] plate reader (PerkinElmer Life Sciences, Turku, Finland). The detailed conditions are described in the figures and tables. The reaction was started by adding NADPH, and fluorescence was measured at 2 min intervals for 40 min using excitation at 405 nm and emission at 460 nm for oxidation of coumarin derivatives[18] and excitation at 570 nm and emission at 615 nm for ethoxyresorufin or pentoxyresorufin 7-O-dealkylations. Incubations without the substrate, enzyme, or NADPH were used as blank reactions. Resorufin was used as a standard, and 3-(4-fluorophenyl)-7-hydroxycoumarin was used as the surrogate standards to calculate the amount of product formed. The linear phase of the reactions was used for calculations.
(§3) Enzyme kinetic parameters were analyzed using the nonlinear Michaelis–Menten equation v = Vmax × S/(Km + S), in which v is the rate for 7-hydroxylation of a coumarin derivative, S is its concentration, and Vmax value is the limiting rate of the reaction of 7-hydroxylation, which reached a half-maximal rate at a concentration of Km for the substrate.

[2] = system: 13 recombinant human CYP enzymes; test: Oxidation rates by 13 recombinant human CYP enzymes at fixed substrate concentration (Figure 2); conditions: 25 nM CYP; for CYP1 form oxidizing the substrate fastest: 10 μM coumarin derivative or 1 μM 7-ethoxy/7-pentoxyresorufin; for oxidation rate relative to oxidation of 7-pentoxyresorufin / fluorescence change and rate of the oxidation: fixed substrate concentration
Protocol: as §1, §2
To find out which CYP forms oxidize the 11 novel coumarin derivatives, we determined their oxidation rates to the corresponding 7-hydroxycoumarin metabolites by 13 recombinant human CYP enzymes at a fixed 10 μM substrate concentration (Figure 2). All except 21, 22, and 23 were oxidized faster by one or several CYP1 forms than by the other CYP forms. […] Oxidation rates of the classical CYP substrates 7-ethoxycoumarin, 7-ethoxyresorufin, and 7-pentoxyresorufin were also determined. […] Oxidation of 7-ethoxycoumarin and 7-ethoxyresorufin was 35 and 60 times faster, respectively, than oxidation of 7-pentoxyresorufin. 7-Ethoxyresorufin was oxidized by CYP1A2 and CYP1B1 at 30–40% of the rate of CYP1A1.
Figure 2 Oxidation of the coumarin derivatives and 7-ethoxy- and 7-pentoxyresorufin by 13 human CYP forms. The formation of fluorescent metabolites was determined in incubations containing a 25 nM CYP, a 20% NADPH regenerating system, and a 10 μM coumarin derivative or 1 μM 7-ethoxy/7-pentoxyresorufin in 100 mM Tris-HCl pH 7.4 in the kinetic experimental setup. […] Note the variation in Y-axis scales between subpanels.

human CYP1B1 = molecular target: T1, human CYP1B1 (Homo sapiens, UniProt Q16678); test: Michaelis–Menten kinetics of oxidation to fluorescent 7-hydroxy metabolite by recombinant CYP1B1; set-up: key to screening activity class: NA, no activity was observed.; LA, low screening activity at the 20 μM substrate and 25 nM CYP concentration; conditions: for screening activity class: CYP1B1, 20 μM substrate and 25 nM CYP
T1 construct: purchased BD Biosciences Discovery Labware (Woburn, MA, USA); host or cells: baculovirus-insect cells
T1 sequence (Q16678 1-543): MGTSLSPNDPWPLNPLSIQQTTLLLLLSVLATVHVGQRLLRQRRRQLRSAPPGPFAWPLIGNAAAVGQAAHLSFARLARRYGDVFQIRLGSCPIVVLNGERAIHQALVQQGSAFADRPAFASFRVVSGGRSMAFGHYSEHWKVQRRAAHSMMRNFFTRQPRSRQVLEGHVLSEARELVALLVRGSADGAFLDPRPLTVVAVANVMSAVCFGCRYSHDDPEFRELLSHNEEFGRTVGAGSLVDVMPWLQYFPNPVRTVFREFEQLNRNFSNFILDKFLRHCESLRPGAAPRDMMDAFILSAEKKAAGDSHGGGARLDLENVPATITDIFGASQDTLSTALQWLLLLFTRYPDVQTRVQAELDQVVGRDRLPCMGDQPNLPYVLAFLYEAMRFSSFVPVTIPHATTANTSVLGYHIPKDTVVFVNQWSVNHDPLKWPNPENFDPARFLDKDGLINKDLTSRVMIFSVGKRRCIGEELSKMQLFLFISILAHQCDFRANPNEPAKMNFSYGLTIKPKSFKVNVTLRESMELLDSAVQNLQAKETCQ
Protocol: as §1, §2, §3

CYP1A2 = molecular target: T2, CYP1A2 (Homo sapiens, UniProt P05177); test: Michaelis–Menten kinetics of oxidation to fluorescent 7-hydroxy metabolite by recombinant CYP1A2; set-up: key to screening activity class: NA, no activity was observed.; LA, low screening activity at the 20 μM substrate and 25 nM CYP concentration; conditions: for Vmax: recombinant CYP1A2, surrogate standard
T2 construct: purchased BD Biosciences Discovery Labware (Woburn, MA, USA); host or cells: baculovirus-insect cells
T2 sequence (P05177 1-516): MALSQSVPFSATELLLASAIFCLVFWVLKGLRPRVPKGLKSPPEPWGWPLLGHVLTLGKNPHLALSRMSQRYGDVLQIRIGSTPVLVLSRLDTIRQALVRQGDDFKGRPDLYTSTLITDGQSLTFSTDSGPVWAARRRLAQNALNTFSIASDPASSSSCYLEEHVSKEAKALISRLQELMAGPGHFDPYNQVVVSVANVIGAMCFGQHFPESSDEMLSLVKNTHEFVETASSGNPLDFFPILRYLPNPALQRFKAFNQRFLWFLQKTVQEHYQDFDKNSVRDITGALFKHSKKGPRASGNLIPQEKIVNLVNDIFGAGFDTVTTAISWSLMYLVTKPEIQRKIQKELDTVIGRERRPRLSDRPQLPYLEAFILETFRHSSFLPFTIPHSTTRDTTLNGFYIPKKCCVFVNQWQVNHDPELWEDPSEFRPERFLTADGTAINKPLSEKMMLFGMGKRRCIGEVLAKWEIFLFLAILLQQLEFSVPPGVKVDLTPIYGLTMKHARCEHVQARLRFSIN
Protocol: as §1, §2, §3

human CYP1A1 = molecular target: T3, human CYP1A1 (Homo sapiens, UniProt P04798); test: Michaelis–Menten kinetics of oxidation to fluorescent 7-hydroxy metabolite by recombinant CYP1A1; set-up: key to screening activity class: NA, no activity was observed.; LA, low screening activity at the 20 μM substrate and 25 nM CYP concentration; conditions: for Vmax: recombinant CYP1A1, surrogate standard, 95% confidence interval in brackets; for screening activity class: CYP1A1, 20 μM substrate and 25 nM CYP
T3 construct: purchased BD Biosciences Discovery Labware (Woburn, MA, USA); host or cells: baculovirus-insect cells
T3 sequence (P04798 1-512): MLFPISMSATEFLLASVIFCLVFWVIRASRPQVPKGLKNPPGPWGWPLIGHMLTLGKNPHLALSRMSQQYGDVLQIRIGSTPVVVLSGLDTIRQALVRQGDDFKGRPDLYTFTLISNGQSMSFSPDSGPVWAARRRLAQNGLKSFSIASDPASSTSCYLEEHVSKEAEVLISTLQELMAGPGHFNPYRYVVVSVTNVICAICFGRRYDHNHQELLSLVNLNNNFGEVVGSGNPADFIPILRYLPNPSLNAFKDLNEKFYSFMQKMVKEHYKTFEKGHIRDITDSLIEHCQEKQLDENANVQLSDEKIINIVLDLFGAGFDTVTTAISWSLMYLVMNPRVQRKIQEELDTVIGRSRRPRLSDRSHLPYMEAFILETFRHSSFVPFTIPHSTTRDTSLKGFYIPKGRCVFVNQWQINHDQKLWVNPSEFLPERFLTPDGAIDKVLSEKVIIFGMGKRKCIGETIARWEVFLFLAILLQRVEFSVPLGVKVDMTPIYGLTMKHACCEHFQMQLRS
Protocol: as §1, §2, §3

[3] = 95% confidence interval in brackets

COc1ccc2oc(=O)c(-c3ccc(OC(F)(F)F)cc3)cc2c1 [Compound 16, 3-(4-trifluoromethoxyphenyl)-6-methoxycoumarin]
substrate efficiency compared among CYP1 enzymes [1]: oxidized with equal efficiency by CYP1A1 and CYP1A2 and weakly by CYP1B1 | CYP1 form oxidizing the substrate fastest [2]: oxidized faster by CYP1A1 than CYP1A2 or CYP1B1 | screening activity class (human CYP1B1): LA

CCOc1ccc2nc3ccc(=O)cc-3oc2c1 [Compound 25, 7-ethoxyresorufin, reference compound]
substrate efficiency compared among CYP1 enzymes [1]: efficient substrates for CYP1A1 compared with CYP1A2 and CYP1B1 | oxidation rate by CYP1A2 and CYP1B1 relative to the rate of CYP1A1 ([2]; 1 μM substrate): 30–40% | CYP1 form oxidizing the substrate fastest [2]: oxidized faster by CYP1A1 than the other CYP1 enzymes | oxidation rate relative to oxidation of 7-pentoxyresorufin [2]: 60 times

COc1ccc(-c2cc3cc(OC(C)=O)ccc3oc2=O)cc1 [Compound 17, 3-(4-methoxyphenyl)-6-acetoxycoumarin]
CYP1 form oxidizing the substrate fastest [2]: oxidized faster by CYP1A2 than CYP1A1 or CYP1B1 | screening activity class (human CYP1B1): LA

O=c1oc2ccc(O)cc2cc1-c1cccc(O)c1 [Compound 15, 3-(3-hydroxyphenyl)-6-hydroxycoumarin]
substrate efficiency compared among CYP1 enzymes [1]: efficient substrate for CYP1A2 compared with CYP1A1 and CYP1B1 | CYP1 form oxidizing the substrate fastest [2]: oxidized faster by CYP1A2 than CYP1A1 or CYP1B1 | Vmax (human CYP1B1; recombinant CYP1B1, surrogate standard, 95% confidence interval in brackets): 0.29 mol/(min·mol CYP)

CCCCCOc1ccc2nc3ccc(=O)cc-3oc2c1 [Compound 26, 7-pentoxyresorufin, reference compound]
substrate efficiency compared among CYP1 enzymes [1]: efficient substrates for CYP1A1 compared with CYP1A2 and CYP1B1 | Vmax (CYP1A2; [3]): 0.25 mol/(min·mol CYP) | CYP1 form oxidizing the substrate fastest [2]: oxidized faster by CYP1A1 than the other CYP1 enzymes | fluorescence change and rate of the oxidation [2]: lowest | Vmax (human CYP1A1): 1.35 mol/(min·mol CYP)

COc1ccc2oc(=O)c(-c3ccc(O)c(F)c3)cc2c1 [Compound 13, 3-(3-fluoro-4-hydroxyphenyl)-6-methoxycoumarin]
substrate efficiency compared among CYP1 enzymes [1]: efficient substrates for CYP1A1 compared with CYP1A2 and CYP1B1 | CYP1 form oxidizing the substrate fastest [2]: oxidized faster by CYP1A1 than CYP1A2 or CYP1B1 | Vmax (human CYP1A1): 32 mol/(min·mol CYP)

COc1ccc2cc(-c3ccc(OC(F)(F)F)cc3)c(=O)oc2c1 [Compound 18, 3-(4-trifluoromethoxyphenyl)-7-methoxycoumarin]
substrate efficiency compared among CYP1 enzymes [1]: oxidized with equal efficiency by CYP1A1 and CYP1A2 and weakly by CYP1B1 | CYP1 form oxidizing the substrate fastest [2]: oxidized faster by CYP1A2 than CYP1A1 or CYP1B1 | screening activity class (human CYP1B1): LA

CC(=O)Oc1ccc(-c2cc3cc(Cl)ccc3oc2=O)cc1 [Compound 20, 3-(4-acetoxyphenyl)-6-chlorocoumarin]
substrate efficiency compared among CYP1 enzymes [1]: efficient substrate for CYP1B1 compared with CYP1A1 and 1A2 | CYP1 form oxidizing the substrate fastest [2]: oxidized faster by CYP1A1 than CYP1A2 or CYP1B1 | Vmax (human CYP1A1): 6.5 mol/(min·mol CYP)

CCOc1ccc2ccc(=O)oc2c1 [Compound 24, 7-ethoxycoumarin, reference compound]
substrate efficiency compared among CYP1 enzymes [1]: efficient substrates for CYP1A1 compared with CYP1A2 and CYP1B1 | Km (CYP1A2; human, recombinant CYP1A2 (baculovirus-insect cell-expressed), recombinant CYP1A2, 100 mM Tris-HCl pH 7.4, 37 °C, 95% confidence interval in brackets): 7.7 µM | Vmax (CYP1A2; [3]): 2.0 (1.4–2.6) mol/(min·mol CYP) | CYP1 form oxidizing the substrate fastest [2]: oxidized faster by CYP1A1 than the other CYP1 enzymes | oxidation rate relative to oxidation of 7-pentoxyresorufin [2]: 35 times

O=c1oc2ccccc2cc1-c1cccc(O)c1 [Compound 23, 3-(3-hydroxyphenyl)coumarin]
CYP1 form oxidizing the substrate fastest [2]: oxidized faster by CYP1A2 than CYP1A1 or CYP1B1 | fluorescence change and rate of the oxidation [2]: lowest | screening activity class (human CYP1B1): LA | screening activity class (human CYP1A1): LA

CC(=O)Oc1cccc(-c2cc3cc(Cl)ccc3oc2=O)c1 [Compound 22, 3-(3-acetoxyphenyl)-6-chlorocoumarin]
screening activity class (CYP1A2; CYP1A2, 20 μM substrate and 25 nM CYP): LA | CYP1 form oxidizing the substrate fastest [2]: oxidized faster by CYP1B1 than by CYP1A1 or CYP1A2 | fluorescence change and rate of the oxidation [2]: almost equally low | screening activity class (human CYP1A1): LA

Cc1ccc2oc(=O)c(-c3ccc(F)cc3)cc2c1 [Compound 21, 3-(4-fluorophenyl)-6-methylcoumarin]
CYP1 form oxidizing the substrate fastest [2]: oxidized faster by CYP1A2 than CYP1A1 or CYP1B1 | fluorescence change and rate of the oxidation [2]: almost equally low | screening activity class (human CYP1B1): LA | screening activity class (human CYP1A1): LA

COc1cccc(-c2cc3cc(OC)ccc3oc2=O)c1 [Compound 19, 3-(3-methoxyphenyl)-6-methoxycoumarin]
substrate efficiency compared among CYP1 enzymes [1]: oxidized with equal efficiency by all CYP1 enzymes | CYP1 form oxidizing the substrate fastest [2]: oxidized faster by CYP1A1 than CYP1A2 or CYP1B1
